In patent publication US11236092B2, “Spiro-condensed pyrrolidine derivatives as deubiquitylating enzymes (DUB) inhibitors” (MISSION THERAPEUTICS LIMITED, priority 2016, dated 2022):

Biological target: Cezanne 1 (Homo sapiens (Human), UniProt Q6GQQ9)
Assay: Cezanne 1 biochemical IC50 assay (fluorescence polarisation)
Settings: FLAG-Cezanne 1; enzyme and compound incubated 30 min at room temp; 50 nM TAMRA labelled peptide linked to ubiquitin as substrate; read after 2 hr; read-out: IC50 range
Method: Expression and Purification of Cezanne 1
The Cezanne 1 construct was PCR amplified and cloned into a pFLAG-CMV-6c vector (Sigma-Aldrich) with an N-terminal FLAG tag. HEK293T cells were transfected with FLAG-Cezanne 1 using TransIT-LT1 transfection reagent (Mirus) according to the manufacturer's instructions. Cells were harvested 48 hours after transfection. […] The resin was washed two times with low salt buffer and one time with high salt buffer (20 mM Tris, pH 7.5, 500 mM NaCl, 0.5 mM EDTA, 5 mM beta-mercaptoethanol, protease inhibitors (complete mini, Roche) and phosphatase inhibitors (PhosSTOP mini, Roche). To elute the bound Cezanne 1, elution buffer (10 mM Tris, pH 7.5, 150 mM NaCl, 0.5 mM EDTA, 10% glycerol, 0.5% NP40, 5 mM beta-mercaptoethanol, 0.15 mg/ml 3X FLAG peptide (Sigma-Aldrich)) was added to the resin and incubated at 4° C. for 2.5 hours while rotating. The resin was centrifuged at 4000 rpm for 30 seconds, and the supernatant containing purified FLAG-Cezanne 1 was removed and stored at −80° C.
Cezanne 1 Biochemical IC50 Assay
Dilution plates were prepared at 21 times the final concentration (2100 μM for a final concentration of 100 μM) in 50% DMSO in a 96-well polypropylene V-bottom plate (Greiner #651201). A typical 8-point dilution series to be 100, 30, 10, 3, 1, 0.3, 0.1, 0.03 μM final. Reactions were performed in duplicate in black 384 well plates (small volume, Greiner 784076) in a final reaction volume of 21 μl. Either 1 μl of 50% DMSO or diluted compound was added to the plate. Cezanne 1 was diluted in reaction buffer (40 mM Tris, pH 7.5, 0.005% Tween 20, 0.5 mg/ml BSA, 5 mM—beta-mercaptoethanol) to the equivalent of 0.005 μl/well and 10 μl of diluted Cezanne 1 was added to the compound. Enzyme and compound were incubated for 30 min at room temp. Reactions were initiated by the addition of 50 nM of TAMRA labelled peptide linked to ubiquitin via an iso-peptide bond as fluorescence polarisation substrate. Reactions were read immediately after addition of substrate and following a 2 hr incubation at room temperature. Readings were performed on a Pherastar Plus (BMG Labtech). λ Excitation 540 nm; λ Emission 590 nm.

Sequence of Cezanne 1 (Q6GQQ9 whole entry): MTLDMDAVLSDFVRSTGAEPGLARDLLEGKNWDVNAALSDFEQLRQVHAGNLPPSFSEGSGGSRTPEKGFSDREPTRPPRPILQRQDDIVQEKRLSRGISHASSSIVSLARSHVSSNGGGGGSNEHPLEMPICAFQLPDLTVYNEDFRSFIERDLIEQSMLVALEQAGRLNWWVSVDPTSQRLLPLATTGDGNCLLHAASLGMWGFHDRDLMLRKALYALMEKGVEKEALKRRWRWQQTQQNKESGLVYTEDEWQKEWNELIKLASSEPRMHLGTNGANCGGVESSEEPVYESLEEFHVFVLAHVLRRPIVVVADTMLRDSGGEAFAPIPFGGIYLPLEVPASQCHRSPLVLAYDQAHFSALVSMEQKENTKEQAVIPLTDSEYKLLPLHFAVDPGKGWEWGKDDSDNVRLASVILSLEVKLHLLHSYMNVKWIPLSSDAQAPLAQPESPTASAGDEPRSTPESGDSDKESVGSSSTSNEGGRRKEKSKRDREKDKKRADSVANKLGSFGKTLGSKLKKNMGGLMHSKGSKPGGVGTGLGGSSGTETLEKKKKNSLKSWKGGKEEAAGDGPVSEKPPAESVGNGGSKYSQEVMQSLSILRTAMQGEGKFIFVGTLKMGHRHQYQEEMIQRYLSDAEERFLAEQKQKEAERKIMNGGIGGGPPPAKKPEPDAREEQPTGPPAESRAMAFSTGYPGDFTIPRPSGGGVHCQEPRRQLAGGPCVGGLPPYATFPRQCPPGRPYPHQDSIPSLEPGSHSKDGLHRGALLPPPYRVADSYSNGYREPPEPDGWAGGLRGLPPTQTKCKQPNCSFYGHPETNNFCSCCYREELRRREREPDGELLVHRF

Row | Substance | IC50 [µM]
1 | 7′-(3-Cyanophenyl)-2′-oxo-l′,4′-dihydro-2′H-spiro┌pyrrolidine-3,3′-quinoline┐-1-carbonitrile [Example 9] | 1 to 10
2 | 2′-Oxo-7′-(4-phenoxyphenyl)-l′,4′-dihydro-2′H-spiro┌pyrrolidine-3,3′-quinoline┐-1-carbonitrile [Example 11] | 1 to 10
3 | 7′-(2-Methylpyridin-4-yl)-2′-oxo-1′,4′-dihydro-2′H-spiro┌pyrrolidine-3,3′-quinoline┐-1-carbonitrile [Example 34] | 1 to 10
4 | 3-(1-Cyano-2′-oxo-1′4′-dihydro-2′H-spiro┌pyrrolidine-3,3′-quinolin┐-7′-yl)-N,N-dimethylbenzamide [Example 30] | 0.1 to 1
5 | 7′-(1-Methyl-1H-pyrazol-5-yl)-2′-oxo-1′,4′-dihydro-2′H-spiro┌pyrrolidine-3,3′-quinoline┐-1-carbonitrile [Example 10] | 1 to 10
